# Read-outs that look alike come from different tables or passages of the source.
# Experiments:
# [1] = tested on: Escherichia coli MC4100 harboring the IMP4213 (E. coli IMP); test: microbe, parasite or virus in culture; format: cell-based; details: 22 h, read-out: MIC (μg/mL) E. coli IMP
# Description: (§1) In vitro antimicrobial activity of each compound was determined by measuring minimal inhibitor concentrations (MICs) using the broth micro-dilution technique as approved by the Clinical and Laboratory Standards Institute (CLSI) (Methods for Dilution Antimicrobial Susceptibility Tests for Bacteria that Grow Aerobically; Approved Standard—Eighth Edition. CLSI document M07-A8. Wayne, Pa.: Clinical and Laboratory Standards; 2009). Antibacterial activity was measure against three strains of bacteria: a Methicillin Resistant Staphylococcus aureus strain USA 300, NRS384 (S. aureus); a strain of Escherichia coli MC4100 harboring the IMP4213 (E. coli IMP), which results in increased outer-membrane permeability (B Martin and Silhavy T. Imp/OstA is required for cell envelope biogenesis in Escherichia coli. (2002) Molecular Microbiology, 45(5), 1289-1302), and Escherichia coli ATCC 25922 (E. coli), a clinically relevant Gram-negative strain. Cells were inoculated onto plates of Trypyticase Soy Agar or Luria Agar respectively and grown at 35° C. for 20 hours. Inocula suspensions were prepared by scraping cells into 1 mL of testing media (cation adjusted Mueller Hinton Broth supplemented with 0.002% v/v Tween-80) and diluting to a final OD600 nm of 0.01.
# (§2) Test compounds were prepared in DMSO at a concentration of 10 mg/mL. […] In protocol 2, the compound stocks were diluted into testing media at a concentration of 4 μg/mL and serial 2-fold dilutions were made in the same media, in 96-well U bottom microtiter dishes, for a total of 10 compound concentrations. In protocol 3, compound stocks were diluted into testing media at a concentration of 0.5 μg/mL, with serial 2-fold dilutions conducted as described above. […] Inocula suspensions were added to the 2-fold serial dilutions of test compounds to a final density of OD OD600 nm of 0.0005 and incubated at 35° C. for 22 hours.
# [2] = tested on: Escherichia coli ATCC 25922 (E. coli); test: Minimum inhibitory concentration, broth micro-dilution (CLSI); format: cell-based; details: read-out: MIC (μg/mL) E. coli
# Description: Cells were inoculated onto plates of Trypyticase Soy Agar or Luria Agar respectively and grown at 35° C. for 20 hours. Inocula suspensions were prepared by scraping cells into 1 mL of testing media (cation adjusted Mueller Hinton Broth supplemented with 0.002% v/v Tween-80) and diluting to a final OD600 nm of 0.01.
# as §2
# [3] = tested on: Methicillin Resistant Staphylococcus aureus strain USA 300, NRS384 (S. aureus); test: as above; format: cell-based
# Description: as §1, §2
# [4] = molecular target: T1, SpsB (Staphylococcus aureus signal peptidase) (Staphylococcus aureus, UniProt P0A070); test: Whole-cell SpsB biochemical screening assay (kinetic fluorogenic enzyme activity)
# T1 construct: a suspension of Staphylococcus aureus cells as a source of SpsB instead of recombinant SpsB protein; endogenous in cells; host or cells: S. aureus, USA300 background, overexpressing SpsB (whole-cell suspension)
# Description: A kinetic fluorogenic enzyme activity assay was used to assess inhibition of SpsB (Staphylococcus aureus signal peptidase) activity and IC50s were determined. This assay uses a suspension of Staphylococcus aureus cells as a source of SpsB instead of recombinant SpsB protein.
# Cell preparation: Luria broth (LB) was inoculated with S. aureus (USA300 background, overexpressing SpsB) and shaken at 37° C. until an OD600 nm of 1.5-2.0 was reached (˜4 hr). The culture was then diluted to an OD600 nm of 1.0 with LB, aliquoted and centrifuged at 10,000×g for 2 mins. The supernatant was removed and the pellet was resuspended in phosphate buffer (1×PBS, 12.5 mg/L MgCl2, 25 mg/L CaCl2, 0.1% Tween-80) to an OD600 nm of 0.5, then centrifuged again at 10,000×g for 2 mins. The supernatant was removed and the pellets were frozen at −20° C.
# Test compounds were prepared in DMSO at a concentration of 10 mg/mL. These compound stocks were diluted into DMSO to a concentration of 25 μg/mL and serial 3-fold dilutions were made in DMSO, for a total of 11 compound concentrations. 20 nL of each compound solution was pre-spotted into a white 384-well plate (50 μL/well polypropylene, Nunc) using acoustic fluid transfer (Echo).
# Frozen S. aureus pellets were resuspended in assay buffer (1×PBS, 12.5 mg/L MgCl2, 25 mg/L CaCl2, 0.1% Tween-80) to an OD600 nm of 0.05, then mixed 1:1 (v/v) with 20 μM substrate ((Dabcyl)βAla-KPAKAAE(Edans)) in assay buffer, and this solution was added (20 μL/well) to the 384-well plate that had been pre-spotted with compound. Fluorescence intensity was then immediately read kinetically for 30 minutes with 2 minute read intervals to monitor cleavage of the internally quenched peptide substrate (excitation wavelength=340 nm, emission wavelength=490 nm, Molecular Devices Spectramax M5). Reaction rate (slope) was plotted against inhibitor concentration to derive the IC50.
# [5] = ATCC25922, E. coli ATCC 25922, 35° C., 22 hours
# [6] = MRSA / NRS 384 / USA300, MRSA USA 300, NRS384, 35° C., 22 hours, cation adjusted Mueller Hinton Broth with 0.002% Tween-80, read-out: MIC (μg/mL) S. aureus
# [7] = MRSA / NRS 384 / USA300, 22 h, read-out: MIC (μg/mL) S. aureus
# T1 sequence (P0A070 whole entry): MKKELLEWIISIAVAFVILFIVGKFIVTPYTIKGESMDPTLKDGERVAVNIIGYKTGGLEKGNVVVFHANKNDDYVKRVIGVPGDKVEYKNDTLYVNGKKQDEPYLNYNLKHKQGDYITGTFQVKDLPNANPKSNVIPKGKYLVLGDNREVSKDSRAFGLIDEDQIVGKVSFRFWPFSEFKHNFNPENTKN
SMILES,MIC [1] [µg/mL],"MIC [2, 5] [µg/mL]","MIC [3, 6] [µg/mL]","MIC ([2]; ATCC25922, 22 h) [µg/mL]","MIC [3, 7] [µg/mL]",IC50 [4] [nM]
CCCCCCCc1ccc(C(=O)N[C@@H](CCN)C(=O)N(C)[C@@H]2C(=O)N[C@@H](C)C(=O)N[C@H](C(=O)NC/C=N/N3CC(=O)NC3=O)Cc3ccc(OCCN)c(c3)-c3cc2ccc3OCCN)c(C)c1 [Compound 101],0.031,4,0.094,,,
CCCCCCCc1ccc(C(=O)N[C@@H](CCN)C(=O)N(C)[C@@H]2C(=O)N[C@@H](C)C(=O)N[C@H](C(=O)N[C@@H](C)/C=N/N3CC(=O)NC3=O)Cc3ccc(OCCN)c(c3)-c3cc2ccc3OCCN)c(C)c1 [Compound 102],0.094,8,0.13,,,
CCCCCCCc1ccc(C(=O)N[C@@H](CCN)C(=O)N(C)[C@@H]2C(=O)N[C@@H](C)C(=O)N[C@H](C(=O)O)Cc3ccc(OCCN)c(c3)-c3cc2ccc3OCCN)c(C)c1 [Compound 103],0.0078,,,0.75,0.17,
CCCCCCCc1ccc(C(=O)N[C@@H](CCN)C(=O)N(C)[C@@H]2C(=O)N[C@@H](C)C(=O)N[C@H](C(=O)NS(=O)(=O)CCl)Cc3ccc(OCCN)c(c3)-c3cc2ccc3OCCN)c(C)c1 [Compound 104],0.023,4,0.75,,,
CCCCCCCc1ccc(C(=O)N[C@@H](CCN)C(=O)N(C)[C@@H]2C(=O)N[C@@H](C)C(=O)N[C@H](C(=O)N[C@@H](C)C(=O)NOC(C)=O)Cc3ccc(OCCN)c(c3)-c3cc2ccc3OCCN)c(C)c1 [Compound 108],0.5,,,32,0.75,
CCCCCCCc1ccc(C(=O)N[C@@H](CCN)C(=O)N(C)[C@@H]2C(=O)N[C@@H](C)C(=O)N[C@H](C(=O)NS(=O)(=O)O)Cc3ccc(OCCN)c(c3)-c3cc2ccc3OCCN)c(C)c1 [Compound 111],0.063,,,8,0.25,
CCCCCCCCc1ccc(C(=O)N[C@@H](CCN)C(=O)N(C)[C@@H]2C(=O)N[C@@H](C)C(=O)N[C@H](C(=O)NOC)Cc3ccc(OCCN)c(c3)-c3cc2ccc3OCCN)c(C)c1 [Compound 113],0.047,,,4,0.063,1.2
CCCCCCCCc1ccc(C(=O)N[C@@H](CCN)C(=O)N(C)[C@@H]2C(=O)N[C@@H](C)C(=O)N[C@H](C(=O)NCC(=O)NCC#N)Cc3ccc(OCCN)c(c3)-c3cc2ccc3OCCN)c(C)c1 [Compound 114],0.13,,,8,0.5,
CCCCCCOc1ccc(C(=O)N[C@@H](CCN)C(=O)N(C)[C@@H]2C(=O)N[C@@H](C)C(=O)N[C@H](C(=O)N[C@@H](C)C(=O)c3nnn[nH]3)Cc3ccc(OCCN)c(c3)-c3cc2ccc3OCCN)c(Cl)c1 [Compound 116],0.063,,,4,0.063,
CCCCc1ccc(-c2ccc(C(=O)N[C@@H](CCCCN)C(=O)N(C)[C@@H]3C(=O)N[C@@H](C)C(=O)N[C@H](C(=O)NCCC#N)Cc4ccc(OCCN)c(c4)-c4cc3ccc4OCCN)cc2)cc1 [Compound 119],1,24,,,,71
CCCCCCCCCCCCCC(=O)N[C@@H](CCCCN)C(=O)N(C)[C@@H]1C(=O)N[C@@H](C)C(=O)N[C@H](C(=O)NCCC#N)Cc2ccc(OCCN)c(c2)-c2cc1ccc2OCCN [Compound 120],0.5,16,2,,,18
